The source made the active and inactive calls. How the calls were made is not given here.

The values below come from PubChem BioAssay AID1259407 (Chemical Carcinogenesis Research Information System (CCRIS), 2018).

The series concerns CCRIS mutagenicity, Ames/micronucleus/aberration tests. Kind of series: CCRIS mutagenicity studies.
Setting [1] is: Test System: AMES SALMONELLA TYPHIMURIUM, Strain/Indicator: TA98, Metabolic Activation: NONE, Method: STANDARD PLATE.
The mark [2] stands for this setting: Test System: AMES SALMONELLA TYPHIMURIUM, Strain/Indicator: TA100, Metabolic Activation: NONE, Method: STANDARD PLATE.
The mark [3] stands for this setting: Test System: AMES SALMONELLA TYPHIMURIUM, Strain/Indicator: TA102, Metabolic Activation: NONE, Method: STANDARD PLATE.

For the compound `Cc1ccc(N(CC2(O)OC[C@@H](O)[C@@H](O)[C@@H]2O)N=O)cc1` (some centres undefined), for the setting “Test System: AMES SALMONELLA TYPHIMURIUM, Strain/Indicator: TA100, Metabolic Activation: NONE, Method: LIQUID INCUBATION”, the mutagenic call was “active; positive”.

On to `Cc1cc([N+](=O)[O-])c(C)c2c1[nH]c1ccc([N+](=O)[O-])cc12`, for which the mutagenic call reads like this: under setting [1], “active; positive”; (Test System: AMES SALMONELLA TYPHIMURIUM, Strain/Indicator: TA98, Metabolic Activation: RAT LIVER S-9, AROCLOR 1254, Method: STANDARD PLATE) “active; positive”; under setting [2], “active; positive”; (Test System: AMES SALMONELLA TYPHIMURIUM, Strain/Indicator: TA100, Metabolic Activation: RAT LIVER S-9, AROCLOR 1254, Method: STANDARD PLATE) “active; positive”; (Test System: AMES SALMONELLA TYPHIMURIUM, Strain/Indicator: TA1537, Metabolic Activation: NONE, Method: STANDARD PLATE) “active; positive”; (Test System: AMES SALMONELLA TYPHIMURIUM, Strain/Indicator: TA1537, Metabolic Activation: RAT LIVER S-9, AROCLOR 1254, Method: STANDARD PLATE) “active; positive”. The mutagenic call by setting is: (Test System: AMES SALMONELLA TYPHIMURIUM, Strain/Indicator: TA1977, Metabolic Activation: NONE, Method: STANDARD PLATE) “active; positive”; (Test System: AMES SALMONELLA TYPHIMURIUM, Strain/Indicator: TA1977, Metabolic Activation: RAT LIVER S-9, AROCLOR 1254, Method: STANDARD PLATE) “active; positive”.

In the case of `O=C(O)c1cn(-c2ccc(F)cc2)c2cc(N3CCNCC3)c(F)cc2c1=O`, the mutagenic call (Test System: AMES SALMONELLA TYPHIMURIUM, Strain/Indicator: TA97, Metabolic Activation: NONE, Method: STANDARD PLATE) was “inactive; negative”; the mutagenic call (Test System: AMES SALMONELLA TYPHIMURIUM, Strain/Indicator: TA97, Metabolic Activation: S-9, Method: STANDARD PLATE) is “inactive; negative”; the mutagenic call under setting [1] is “inactive; negative”; the mutagenic call (Test System: AMES SALMONELLA TYPHIMURIUM, Strain/Indicator: TA98, Metabolic Activation: S-9, Method: STANDARD PLATE) was “inactive; negative”; the mutagenic call under setting [2] is “inactive; negative”; the mutagenic call (Test System: AMES SALMONELLA TYPHIMURIUM, Strain/Indicator: TA100, Metabolic Activation: S-9, Method: STANDARD PLATE) was “inactive; negative”. Besides, the mutagenic call is, setting by setting: under setting [3], “inactive; negative”; (Test System: AMES SALMONELLA TYPHIMURIUM, Strain/Indicator: TA102, Metabolic Activation: S-9, Method: STANDARD PLATE) “inactive; negative”.

As to `O=Cc1ccc(C(=O)ON(OCc2ccccc2)C(=O)c2ccccc2)cc1`, the mutagenic call is “active; positive” under setting [2] and “active; positive” (Test System: AMES SALMONELLA TYPHIMURIUM, Strain/Indicator: TA100, Metabolic Activation: RAT, S-9, AROCLOR, Method: STANDARD PLATE).

In the case of `COP(=O)(OC)OC`, the mutagenic call (Test System: AMES SALMONELLA TYPHIMURIUM, Strain/Indicator: TA98, Metabolic Activation: HAMSTER, LIVER, S-9, AROCLOR 1254 (30%), Method: PREINCUBATION) is “inactive; negative”; the mutagenic call (Test System: AMES SALMONELLA TYPHIMURIUM, Strain/Indicator: TA98, Metabolic Activation: NONE, Method: PREINCUBATION) is “inactive; negative”; the mutagenic call (Test System: AMES SALMONELLA TYPHIMURIUM, Strain/Indicator: TA98, Metabolic Activation: RAT, LIVER, S-9, AROCLOR 1254 (30%), Method: PREINCUBATION) is “inactive; negative”; the mutagenic call (Test System: AMES SALMONELLA TYPHIMURIUM, Strain/Indicator: TA100, Metabolic Activation: HAMSTER, LIVER, S-9, AROCLOR 1254 (30%), Method: PREINCUBATION) is “active; positive”; the mutagenic call (Test System: AMES SALMONELLA TYPHIMURIUM, Strain/Indicator: TA100, Metabolic Activation: NONE, Method: PREINCUBATION) is “inactive; negative”; the mutagenic call (Test System: AMES SALMONELLA TYPHIMURIUM, Strain/Indicator: TA100, Metabolic Activation: RAT, LIVER, S-9, AROCLOR 1254 (30%), Method: PREINCUBATION) is “active; positive”. The mutagenic call was “inactive; negative” under setting [3]; “active; positive” (Test System: AMES SALMONELLA TYPHIMURIUM, Strain/Indicator: TA2638, Metabolic Activation: NONE, Method: STANDARD PLATE); “active; positive” (Test System: E. COLI, Strain/Indicator: WP2 (PKM101), Metabolic Activation: NONE, Method: STANDARD PLATE); “active; positive” (Test System: E. COLI, Strain/Indicator: WP2 UVRA (PKM101), Metabolic Activation: NONE, Method: STANDARD PLATE).

On to `Nc1ccc2c(N)c3ccccc3nc2c1`, for which the mutagenic call (Test System: AMES SALMONELLA TYPHIMURIUM, Strain/Indicator: TA1535, Metabolic Activation: NONE, Method: PREINCUBATION) is “inactive; negative”; the mutagenic call (Test System: AMES SALMONELLA TYPHIMURIUM, Strain/Indicator: TA1535, Metabolic Activation: RAT, LIVER, S-9, TETRACHLOROBIPHENYL, Method: PREINCUBATION) is “inactive; negative”; the mutagenic call (Test System: AMES SALMONELLA TYPHIMURIUM, Strain/Indicator: TA1537, Metabolic Activation: NONE, Method: PREINCUBATION) is “active; positive”; the mutagenic call (Test System: AMES SALMONELLA TYPHIMURIUM, Strain/Indicator: TA1537, Metabolic Activation: RAT, LIVER, S-9, TETRACHLOROBIPHENYL, Method: PREINCUBATION) was “active; positive”; the mutagenic call (Test System: AMES SALMONELLA TYPHIMURIUM, Strain/Indicator: TA1538, Metabolic Activation: NONE, Method: PREINCUBATION) was “active; positive”; the mutagenic call (Test System: AMES SALMONELLA TYPHIMURIUM, Strain/Indicator: TA1538, Metabolic Activation: RAT, LIVER, S-9, TETRACHLOROBIPHENYL, Method: PREINCUBATION) was “active; positive”. Besides, the mutagenic call was “active; positive” (Test System: AMES SALMONELLA TYPHIMURIUM, Strain/Indicator: TA1977, Metabolic Activation: NONE, Method: PREINCUBATION); “active; positive” (Test System: AMES SALMONELLA TYPHIMURIUM, Strain/Indicator: TA1977, Metabolic Activation: RAT, LIVER, S-9, TETRACHLOROBIPHENYL, Method: PREINCUBATION); “inactive; negative” (Test System: AMES SALMONELLA TYPHIMURIUM, Strain/Indicator: TA1978, Metabolic Activation: NONE, Method: PREINCUBATION); “inactive; negative” (Test System: AMES SALMONELLA TYPHIMURIUM, Strain/Indicator: TA1978, Metabolic Activation: RAT, LIVER, S-9, TETRACHLOROBIPHENYL, Method: PREINCUBATION).
